We go through 2 compounds from patent US11767307B2, “Litter for promoting pet's in-litter elimination” (SPECIALITES PET FOOD, priority 2018, dated 2023).

In one assay the test system is cats. The following applies: 21 commercial cat attractants tested; cited from earlier work.
A further assay relates to cat elimination behavior. Description: Two-litter-box test of cat elimination behavior (deposits weight in litter). Type of assay: in vivo, cats. The following applies: measured on non-soiled litters the first day of use. The source says:
Twenty cats in 5 living rooms (4 cats per room) were involved in the study. The study lasted 4 days and two litter boxes containing two different products, i.e. a control cat litter (Litter 1, non-clumping clay) and an experimental cat litter (Litter 2) sprayed with 0.1% of composition A according to Example 1, were presented to the cats.
Diet was controlled for each test by measuring food intake. The temperature of the rooms was controlled. In each room, an equal proportion of males/females was respected.
Twenty cats in 5 living rooms (4 cats per room) were involved in the study. Two litter boxes containing two different products, i.e. a control cat litter (Litter 3, non-clumping clay) and an experimental cat litter (Litter 4) sprayed with 0.1% of composition B according to Example 1, were presented to the cats.

SMILES strings stand for the structures.

On to `CC(C)(CCO)SC[C@H](N)C(=O)O` [L-Felinine], for which, in the assay with cats, the “preference by cats for urine elimination versus control” value is “significantly preferred”.
Turning to `CC1(C)OCC(CO)O1` (centres unmarked) [composition A, 2,2-dimethyl-1,3-dioxolane-4-methanol], the “in-litter cat elimination promoting (attractant) effect” value with cat elimination behavior was “in-litter cat elimination promoting (or attractant) effect”.
